Laboratory results published in patent publication US6379658B1, “Human sweat malodor counteractant composition and process for using same” (International Flavors & Fragrances Inc., priority 1999, dated 2002).

Assay: Human sweat malodor neutralization (jar method), headspace rated by trained panel using Magnitude Estimation
Conditions: single fragrance ingredient; % Reduction=100×[1-(malodor intensity/total intensity)]
Experimental: Malodor neutralization is evaluated by placing a specified amount of malodor into an uncapped, 1 ounce wide-mouth jar. This jar is placed into an 8 ounce wide-mouth jar containing a specified amount of test material or finished fragrance. The quantities of malodor and fragrance are dependent on the specific malodor model used. The 8 ounce jar is capped and allowed to equilibrate. The panelists then rate the headspace for (1) total intensity, (2) malodor intensity and (3) overall like/dislike (hedonics). They are provided with an identified sample of malodor as a reference. Each group of samples presented to the panel contains an unidentified positive control (a fragrance material with no malodor), two unidentified negative controls (malodor with no fragrance) and up to twelve test samples (each fragrance is presented in duplicate or triplicate).
It is to be noted that evaluations are carried out by panelists who have been extensively screened for their olfactory acuity and trained in the method of evaluation (Magnitude Estimation). Panelist performance is constantly monitored and reviewed.
All samples are coded with random 5-digit numbers. Panelists are instructed to select samples from the test set and evaluate them in a random order.
The results of these experiments are expressed in terms of malodor reduction (neutralization), change in overall intensity and improvement in hedonics.
The percent malodor reduction is calculated as:
% Reduction=100×[1-(malodor intensity/total intensity)]
or shown thusly: [formula]
wherein wherein RMOL represents malodor reduction; iMO is malodor intensity; and iT represents total intensity.
The following protocol has been developed to determine the level of odor neutralization:
1. A predetermined quantity of the malodor model is measured with a micropipette into an uncapped 1 oz. wide-mouth jar. This jar is subsequently placed into an 8 oz. wide-mouth jar containing a predetermined quantity of the test material. The 8 oz. jar is capped and allowed to equilibrate prior to evaluation;
2. […] Each judge is also presented with an identified sample of the malodor in order to reinforce the malodor discrimination task;
3. Each of the judges rate the headspace for (a) total odor intensity, (b) malodor intensity and (c) the overall like/dislike (hedonics) of the sample; and […]

Compound	% Human Sweat Malodor Coverage [% reduction]
COc1ccc2ccccc2c1 [β-Naphthyl methyl ether, β-naphthyl methyl ether]	92
CC(=O)c1ccc2ccccc2c1 [Methyl β-naphthalene ketone, methyl β-naphthyl ketone]	96
CC(=O)C(C)=CC1C(C)=CCCC1(C)C (centres unmarked) [γ-Methyl ionone, 4-(2,6,6-trimethyl-2-cyclohexen-1-yl)-3-methyl-3-buten-2-one]	93
mixture of hexahydro4,7-methanoinden-5-yl propionate and hexahydro-4,7-methanoinden-6-yl propionate [CYCLAPROP ™]	91
CC(=O)CCc1ccccc1 [Benzyl acetone, benzyl acetone]	96
